The record followed here is paper PMC10685318, “Trans-cyclosulfamidate mannose-configured cyclitol allows isoform-dependent inhibition of GH47 α-D-mannosidases through a bump–hole strategy” (Chemical Science, 2023).

The assay has as its target T1, MAN2B2 (Homo sapiens, UniProt Q9Y2E5).
T1 construct: expressed in transfected cells
T1 sequence (Q9Y2E5 24-1009): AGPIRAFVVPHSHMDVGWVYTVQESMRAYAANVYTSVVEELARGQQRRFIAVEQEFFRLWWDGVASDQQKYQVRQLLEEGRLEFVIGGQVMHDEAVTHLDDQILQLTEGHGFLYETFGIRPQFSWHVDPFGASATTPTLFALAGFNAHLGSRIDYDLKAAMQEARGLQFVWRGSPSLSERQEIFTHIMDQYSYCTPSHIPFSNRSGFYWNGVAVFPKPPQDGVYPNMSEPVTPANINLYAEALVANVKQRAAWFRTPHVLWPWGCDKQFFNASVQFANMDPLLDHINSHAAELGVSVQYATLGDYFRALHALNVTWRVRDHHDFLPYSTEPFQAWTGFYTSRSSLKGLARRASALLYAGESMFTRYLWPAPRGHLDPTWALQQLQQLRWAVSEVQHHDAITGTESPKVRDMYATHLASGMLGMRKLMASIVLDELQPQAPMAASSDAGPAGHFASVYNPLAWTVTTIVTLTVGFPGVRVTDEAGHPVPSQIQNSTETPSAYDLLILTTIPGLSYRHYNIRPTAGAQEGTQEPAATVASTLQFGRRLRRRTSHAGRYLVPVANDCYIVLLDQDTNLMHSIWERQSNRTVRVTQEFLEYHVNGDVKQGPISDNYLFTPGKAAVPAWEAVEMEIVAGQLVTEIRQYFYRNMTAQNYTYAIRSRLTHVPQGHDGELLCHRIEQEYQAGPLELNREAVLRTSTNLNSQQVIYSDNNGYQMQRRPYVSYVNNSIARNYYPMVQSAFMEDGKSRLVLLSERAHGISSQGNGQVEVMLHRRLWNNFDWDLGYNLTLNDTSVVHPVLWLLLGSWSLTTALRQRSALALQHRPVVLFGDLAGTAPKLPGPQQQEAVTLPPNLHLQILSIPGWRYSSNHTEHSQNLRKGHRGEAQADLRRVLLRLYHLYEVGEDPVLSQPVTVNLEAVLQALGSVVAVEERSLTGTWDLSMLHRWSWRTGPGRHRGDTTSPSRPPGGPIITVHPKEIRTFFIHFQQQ
Nature of the assay: 4-MU-α-man activity assay in overexpressed cell lysates. It counts as biochemical. From the text: Finally, selectivity versus a panel of related exo-mannosidases was investigated. We first tested inhibition against all five human GH38 retaining α-mannosidases in overexpressed cell lysates using 4-methylumbelliferyl-α-mannoside (4-MU-α-man): Golgi mannosidase II and IIx (MAN2A1 and MAN2A2), cytosolic MAN2C1 and lysosomal MAN2B1 and MAN2B2. This α-mannosidase family follows a different conformational itinerary than GH47: ^0S2 → B2,5 → ^1S5.[35] […] Of note, the presence of cobalt has been associated with conformational changes in the active site of some GH38 α-mannosidases, which might affect the binding interaction with inhibitors.[36] Nevertheless, additional research is required to explore which specific metal ion is present in the MAN2C1 active site in its in vivo state.
Trans-Cyclosulfamidate Cyclitols Males et al.
2.3 GH38 α-mannosidases and GH2 β-mannosidase inhibition studies
All chemicals were of analytical grade and purchased from Sigma-Aldrich unless stated otherwise.
Optimal stability of cell homogenates and enzyme working stocks was ensured by preparation and temporary storage on ice. Cell homogenates were prepared and used on the same day. Protein concentrations were quantified using the Pierce BCA Protein Assay Kit (ThermoFisher). Protein samples were measured in clear flat-bottom polystyrene 96 well microplates (Greiner Bio-One) using a EMax Plus Microplate Reader (Molecular Devices). Activity measurements of human GH38 α-mannosidases and bacterial β-mannosidase BtMan2A were performed in black flat-bottom polystyrene 96 wells microplates (Greiner Bio-One) and total fluorescence was measured using a Perkin Elmer LS-55 fluorescence spectrometer at wavelengths λex = 366 and λem = 445 nm, with the signal optimized for medium gain readings. The fluorescence values of each enzyme sample were corrected for the background signal of a blank sample containing no enzyme. In the case of IC50 determinations, values were normalized against a control sample containing enzyme without added inhibitor. For a single experiment, three separate curves were fitted from a technical triplicate by setting the inhibitor concentration in µM against the normalized response using GraphPad Prism 8.4.2 software. The Prism functions ‘[inhibitor] versus normalized response’ and ‘[inhibitor] versus normalized response -- variable slope’ were compared for each curve using the Akaike’s Information Criterion method to select the preferred model. Reported IC50 values are mean ± standard deviation from a biological […]
General cell culture protocol
HEK293T cells were grown to confluency at 37 °C under a 5% CO2 atmosphere in Dulbecco’s Modified Eagle’s Medium (DMEM) with a high glucose concentration (Capricorn Scientific, DMEM-HPXA) that was supplemented with 10% fetal calf serum, 0.1% (w/v) penicillin/streptomycin and 1% (v/v) Glutamax. Cells were passaged twice a week to new round polystyrene (PS) tissue culture dishes (Sarstedt) by detachment off the former culture plates by careful pipetting. To prepare cell pellets for activity measurements, plates were grown to confluency and harvested in phosphate buffered saline (PBS). After centrifugation at 1500 rpm for 5 min, the remaining PBS was aspirated and the cells were resuspended in fresh PBS. The concentration of the resulting suspension was then counted using a TC20 automated cell counter (BioRad). Aliquots were centrifuged at 2000 rpm for 5 min and the resulting cell pellets were stored at -80 °C until further use.
4-MU activity assay protocol for human GH38 α-mannosidases
HEK293T cells stably overexpressing human GH38 α-mannosidases MAN2A1, MAN2A2, MAN2B1, MAN2B2 and MAN2C1 were prepared as previously described[11] and were kindly donated by Dr. C. L.
Kuo. Homogenates were prepared by sonicating cell pellets (Sonics VibraCell, 5x1 s with 30 s interval at 20% amplitude) in 150 mM McIlvain buffer of pH 5.5 (MAN2A1, MAN2A2), pH 4.5 (MAN2B1, MAN2B2) or pH 6.7 (MAN2C1) containing either 2 mM ZnCl2 (MAN2A1, MAN2A2, MAN2B1, MAN2B2) […]

The structures appear in SMILES notation. A value given as a limit tells only on which side of the number the result lay.

With `O=S1(=O)N[C@@H]2[C@@H](O)[C@@H](O)[C@H](O)[C@@H](CO)[C@H]2O1` [compound 6, 1,6-trans-manno-cyclosulfamidate], the “activity when the buffer was enriched with CoCl2” value (CoCl2) was “no activity”. Under “Zn2+”, this molecule had an IC50 greater than 1000 µM.

By IC50 is commonly meant the point on the concentration scale where inhibition reaches its midpoint.
